Laboratory results: patent publication US8697376B2, “Synthetic protease substrates, assay methods using such substrates and kits for practicing the assay” (Lifesensors, INc., priority 2010, dated 2014)

System: DUBs immobilized on a Nexterion slide H
Test: Microarray-based assay: cleavage and label transfer to immobilized DUBs
Format: biochemical
Details: 35 DUBs arrayed as triplicate spots; FIG. 5
Method: Since one of the primary uses for the substrates of the invention is localization of active deubiquitylases immobilized in a microarray-type format, i.e. solid phase assay, each of the substrates was tested for its ability to be cleaved and subsequently transfer label to DUBs immobilized on a Nexterion slide H (Schott). Thirty-five (35) DUBs were arrayed as a series of triplicate spots on the slide (see Table 6 for a map of the array) Three identical arrays were constructed on each slide. Several features that were common amongst each array on a given slide and between slides are shown boxed in red and numbered 1-7. […] It should be noted that the enzymes (and antibodies) were coupled 1) at different concentrations and 2) by covalent attachment through surface exposed lysines.

ubiquitin-vinylsulfone
immobilized enzymes labeled (positive features) on the microarray: all of the immobilized proteins were labeled
